Tested on: T cell lines from grass-allergic patients primed in vitro with affinity purified Lol p V
Assay: T cell proliferation (tritiated thymidine uptake) of Lol p V-primed T cell lines restimulated with peptides or proteins
Assay type: cell-based, human
Details: for mean T cell stimulation index (S.I.): mean of positive responses (S.I. at least 2), FIGS. 4 and 5
Source text: As discussed in Example 2, human T cell stimulating activity can be tested by culturing T cells obtained from an individual sensitive to Lol p V allergen, (i.e., an individual who has an IgE mediated immune response to Lol p V allergen) with a peptide derived from the allergen and determining whether proliferation of T cells occurs in response to the peptide as measured, e.g., by cellular uptake of tritiated thymidine. Stimulation indices for responses by T cells to peptides can be calculated as the maximum CPM in response to a peptide divided by the control CPM. A stimulation index (S.I.) equal to or greater than two times the background level is considered "positive". Positive results are used to calculate the mean stimulation index for each peptide for the group of patients tested. In FIGS. 4 and 5 the mean T cell stimulation index is indicated above the bar. Preferred peptides of this invention comprise at least one T cell epitope and have a mean T cell stimulation index of greater than or equal to 2.0. A peptide having a mean T cell stimulation index of greater than or equal to 2.0 in a significant number of ryegrass pollen sensitive patients tested is considered useful as a therapeutic agent. Preferred peptides have a mean T cell stimulation index of at least 2.5, more preferably at least 3.0, more preferably at least 3.5, more preferably at least 4.0, more preferably at least 5.0 and most preferably at least about 6. For example, peptides of the invention having a mean T cell stimulation index of at least 5, as indicated by data shown in FIGS. 4 and 5, include peptides LPIX-4 (SEQ ID NO:6), LPIX-5 (SEQ ID NO:7), LPIX-8 (SEQ ID NO:10) LPIX-17 (SEQ ID NO:19) and LPIX-19 (SEQ ID NO:21).
In addition, preferred peptides have a positivity index (P.I.) of at least about 60, more preferably about 100, more preferably at least about 200 and most preferably at least about 300. The positivity index for a peptide is determined by multiplying the mean T cell stimulation index by the percent of individuals, in a population of individuals sensitive to ryegrass pollen (e.g., preferably a population of at least 15 individuals,more preferably a population of at least 30 individuals or more), who have a T cell stimulation index to such peptide of at least 2.0. Thus, the positivity index represents both the strength of a T cell response to a peptide (S.I.) and the frequency of a T cell response to a peptide in a population of individuals sensitive to ryegrass pollen. In FIG. 4, the bar represents the positivity index and the percent of individuals tested who have a T cell stimulation index of at least 2.0 to that peptide are indicated in parenthesis above each bar (the mean T cell stimulation index is also indicated above each bar). […] Lol p V peptides having a positivity index of at least about 100 and a mean T cell stimulation index of at least about 4 include: LPIX-4 (SEQ ID NO:6), LPIX-5 (SEQ ID NO:7), and LPIX-17 (SEQ ID NO:19).
In FIG. 5, the bar represents the cumulative rank of the peptide response in the group of patients tested as described in Example 2. To determine the cumulative rank, the 5 peptides with the highest S.I. in each individual were determined and assigned a numerical rank in descending order, with 5 representing the strongest response. The ranks for each peptide were then summed for the entire group of patients tested to determine the cumulative rank for the peptide. Above each bar is the mean S.I. for each peptide and the percent of positive responses (in parenthesis) with an S.I. of at least 2 to the peptide in the group of patients tested.
This amount of priming antigen was determined to be optimal for the activation of T cells from most grass-allergic patients. Viable cells were purified by LSM centrifugation and cultured in complete medium, supplemented with 5 units recombinant human IL-2/ml and 5 units recombinant human IL-4/ml for up to 3 weeks until the desired cell number were achieved. […]

Substance | positivity index (P.I.; % of patients responding multiplied by mean S.I.) (19 patients, FIG. 4) | mean T cell stimulation index (S.I.) (19 patients) | further results
LPIX-4: synthetic overlapping peptide derived from Lol p V, sequence shown in FIG. 2 (EQKLLEDVNAGFKAAVAAAA) | at least 100 |  | 
LPIX-5: synthetic overlapping peptide derived from Lol p V, sequence shown in FIG. 2 (GFKAAVAAAANAPPADKFKI) |  |  | percent of positive responses (patients with S.I. of at least 2.0) (group of 19 patients tested, FIG. 4): 26.3%
LPIX-8: synthetic overlapping peptide derived from Lol p V, sequence shown in FIG. 2 (GLLATSAAKAPGLIPKLDTA) |  | at least 5 | 
LPIX-17: synthetic overlapping peptide derived from Lol p V, sequence shown in FIG. 2 (ATAANAAPTNDKFTVFESAF) | at least 100 |  | 
LPIX-19: synthetic overlapping peptide derived from Lol p V, sequence shown in FIG. 2 (NKALNECTGGAYETYKFIPS) |  | at least 5 | 
LPIX-20: synthetic overlapping peptide derived from Lol p V, sequence shown in FIG. 2 (AYETYKFIPSLEAAVKQAYA) |  |  | ranked sum (cumulative rank of the peptide response) (19 patients, 5 highest S.I. per individual ranked and summed, FIG. 5): highest ranked sum

From patent publication US5710126A, “T cell epitopes of ryegrass pollen allergen” (ImmuLogic Pharmaceutical Corporation, priority 1995, dated 1998)
